Consider three compounds from patent US12582605B2, “Extended release formulations of cannabinoids” (Glatt GmbH, priority 2018, dated 2026).

The conditions of data set [1]: oral administration; cited from earlier work.
For data set [2] the following is noted: pH values ranging from 1.2 to 7.0; cited from earlier work.
Data set [3] is described as follows: Dissolution test, release of probucol (USP Type II paddle, purified water). The class given is physicochemical. Conditions: after / through 24 hours. As for the experimental part:
A dissolution test was conducted on the compositions using purified water, USP, as the dissolution medium in a dissolution volume of 900 ml. A USP Type II paddle apparatus was used to mix the dissolution medium at a paddle speed of 75 rpm. The bath temperature was 37° C., and a 10-μm porous filter was used to sample aliquots.
A dissolution test was conducted on Example Compositions D-H using purified water, USP, as the dissolution medium in a dissolution volume of 900 ml. A USP Type II paddle apparatus was used to mix the dissolution medium at a paddle speed of 75 rpm. The bath temperature was 37° C., and a 10-μm porous filter was used to sample aliquots.

Consider `CCCCCc1cc(O)c2c(c1)OC(C)(C)[C@@H]1CCC(C)=C[C@@H]21` [THC, Δ9-tetrahydrocannabinol], for which, in data set [1], the duration of action was 2 to 4 h and the “duration of psychoactive action” value was 4 to 6 h.

As for `CCCCCCC(C)(C)c1cc(O)c2c(c1)OC(C)(C)C1CCC(=O)CC21` (stereo not shown) [nabilone], the “solubility in aqueous media” value in data set [2] was “less than 0.5 mg/L”.

For Tween® 80, the “drug release (probucol)” value in data set [3] was 88 % w/w.
